Biological target: T1, α4β7 (Homo sapiens, UniProt P13612+P26010)
T1 construct: α4β7 expressing cells (RPMI-8866); endogenous in cells; host or cells: RPMI 8866
T1 sequence (P13612 34-1032): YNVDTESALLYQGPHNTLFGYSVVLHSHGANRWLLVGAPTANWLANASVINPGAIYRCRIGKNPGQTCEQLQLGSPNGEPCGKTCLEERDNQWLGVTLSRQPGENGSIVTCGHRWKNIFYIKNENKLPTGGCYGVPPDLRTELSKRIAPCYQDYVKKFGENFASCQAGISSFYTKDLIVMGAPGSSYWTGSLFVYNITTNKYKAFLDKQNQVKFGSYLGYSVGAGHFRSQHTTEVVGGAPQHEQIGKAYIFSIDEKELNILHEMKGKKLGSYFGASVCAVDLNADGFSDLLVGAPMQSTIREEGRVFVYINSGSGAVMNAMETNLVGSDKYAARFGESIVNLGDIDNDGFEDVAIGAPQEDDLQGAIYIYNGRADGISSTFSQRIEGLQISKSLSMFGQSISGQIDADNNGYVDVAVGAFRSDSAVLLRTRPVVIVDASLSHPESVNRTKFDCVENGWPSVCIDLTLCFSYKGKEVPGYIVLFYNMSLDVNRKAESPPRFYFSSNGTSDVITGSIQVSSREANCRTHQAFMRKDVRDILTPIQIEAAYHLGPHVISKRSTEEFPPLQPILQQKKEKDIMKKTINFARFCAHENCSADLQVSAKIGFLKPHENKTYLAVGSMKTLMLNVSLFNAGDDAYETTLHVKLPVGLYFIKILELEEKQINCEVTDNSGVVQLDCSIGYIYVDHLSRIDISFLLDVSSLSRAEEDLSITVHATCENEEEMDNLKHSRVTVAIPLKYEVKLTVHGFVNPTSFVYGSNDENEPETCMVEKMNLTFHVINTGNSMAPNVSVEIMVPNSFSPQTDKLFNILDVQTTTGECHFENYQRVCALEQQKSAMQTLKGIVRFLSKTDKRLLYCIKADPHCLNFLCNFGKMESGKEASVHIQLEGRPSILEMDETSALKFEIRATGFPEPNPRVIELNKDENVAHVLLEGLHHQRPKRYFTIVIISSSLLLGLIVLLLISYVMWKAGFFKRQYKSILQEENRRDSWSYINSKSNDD
T1 sequence (P26010 20-798): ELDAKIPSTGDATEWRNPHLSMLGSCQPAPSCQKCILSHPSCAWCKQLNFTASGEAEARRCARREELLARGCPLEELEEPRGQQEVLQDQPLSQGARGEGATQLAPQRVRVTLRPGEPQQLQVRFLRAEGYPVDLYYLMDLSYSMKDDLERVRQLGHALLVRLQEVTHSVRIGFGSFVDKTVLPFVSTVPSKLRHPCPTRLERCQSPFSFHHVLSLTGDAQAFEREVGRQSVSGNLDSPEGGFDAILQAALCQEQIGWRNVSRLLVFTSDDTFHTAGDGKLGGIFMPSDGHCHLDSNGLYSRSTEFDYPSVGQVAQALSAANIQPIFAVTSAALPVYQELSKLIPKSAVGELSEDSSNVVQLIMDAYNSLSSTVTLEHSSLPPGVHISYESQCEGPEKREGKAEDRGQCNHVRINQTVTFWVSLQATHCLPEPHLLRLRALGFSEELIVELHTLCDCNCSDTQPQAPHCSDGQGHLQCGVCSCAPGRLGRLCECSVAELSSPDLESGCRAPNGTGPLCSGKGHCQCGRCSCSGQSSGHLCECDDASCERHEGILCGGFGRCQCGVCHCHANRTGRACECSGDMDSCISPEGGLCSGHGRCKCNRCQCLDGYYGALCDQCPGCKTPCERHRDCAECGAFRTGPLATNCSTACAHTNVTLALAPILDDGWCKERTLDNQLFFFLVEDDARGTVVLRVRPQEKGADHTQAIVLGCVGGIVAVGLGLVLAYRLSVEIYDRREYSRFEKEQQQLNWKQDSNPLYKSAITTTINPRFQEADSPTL
Assay: Cell adhesion assay, RPMI8866 cells adhering to MAdCAM coated plates
Type: cell-based
Conditions: RPMI8866 cells on recombinant human MAdCAM coated plates; read-out: CA Assay (Example 7) IC50
Method: Three in vitro assays were used to examine the α4β7 mechanistic process used by cells: 1) ligand:receptor affinity, 2) the avidity of those interactions on a cell's surface, and 3) how those interactions fare under an imposing force. In Example 5, a Fluorescence Polarization (FP) assay is used to measure compound activity through binding competition with the fluorescein-labeled peptide. In Example 6, the potency of compounds against α4β7 is measured in the cell-based ligand binding assay (LBA), using RPMI 8866 cells incubated with the compound samples in competition with soluble MAdCAM-1 ligand. In Example 7, activity of compounds is evaluated in a cell adhesion assay that mechanistically tests what occurs in vivo when trafficking cells utilize α4β7 to adhere to MAdCAM-1 expressing HEVs of the gut during the extravasation process. In the cell adhesion assay of Example 7, a MAdCAM1-(Fc) is coated on plastic, and α4β7 expressing cells (RPMI-8866) are allowed to adhere to the coated surface in the presence of the test compounds. Next, the force of washing with buffer is applied to cells thereby testing the strength of that adhesion. Unattached cells are removed and the remaining adherent cells are quantified.
Example 7 describes a cell adhesion assay.
To each well of a 96 well plate, 100 ug of recombinant human MAdCAM in 100 ul PBS is added and incubated overnight at 4° C. After incubation MAdCAM is removed by aspiration and 200 ul of PBS+1% BSA is added to block the plate for 2 hours at 37° C. and 5% CO2. During this incubation dilution curves of compound are made in 100% DMSO in 96 well V bottom plates. 1.75 ul of diluted compounds are then transferred to a new 96 well U bottom plate containing 20 ul of assay media (phosphate free DMEM+25 mM HEPES+1% BSA). To this an additional 155 ul of assay media is added with mixing by pipetting up and down. This mixture is allowed to incubate for 15 minutes at 37° C. and 5% CO2. After incubation 175 ul of assay media containing 2e6/mL RPMI8866 cells is added to compound containing wells without mixing and plate is allowed to incubate for another 15 minutes at 37° C. and 5% CO2. During this incubation MAdCAM coated plates are removed from incubator and washed twice with 200 ul PBS+0.1% BSA. […] This plate is then incubated at 37° C. and 5% CO2 for 1 hour. After incubation plates are washed twice with 200 ul and once with 50 ul of phenol free RPMI+1% BSA. A final 50 ul of phenol free RPMI+1% BSA is added to wells after last wash. Next 50 ul of Promega cell titer glow is added to the wells. Plate is incubated on shaker for 2 minutes at 200 RPM followed by another 8 minutes off shaker before having the luminescence read on a Biotek Citation 5 plate reader. Raw data is converted to % inhibition compared to bottom of curve and analyzed using a 4-parameter non linear curve in Prism to determine IC50 and IC90.

SMILES	IC50 [nM]
Cc1cc(F)c(C)c(C)c1-c1cc(C(F)(F)F)c(F)c([C@H](CC(=O)O)NC(=O)[C@H](CC(C)C)n2cc(CCN3CCC3)c(C(F)(F)F)cc2=O)c1F [KT-P2, (3S)-3-(2-(5-(2-(azetidin-1-yl)ethyl)-2-oxo-4-(trifluoromethyl)pyridin-1(2H)-yl)-4-methylpentanamido)-3-(2,4,4′-trifluoro-2′,3′,6′-trimethyl-5-(trifluoromethyl)-[1,1′-biphenyl]-3-yl)propanoic Acid]	< 5
Cc1cc(C)c(-c2cc(C(F)(F)F)c(F)c([C@H](CC(=O)O)NC(=O)[C@H](CC(C)C)n3cc(CCN(C)C)c(C(F)(F)F)cc3=O)c2F)c(C)c1 [IF-P2, (3S)-3-(2,4-difluoro-2′,4′,6′-trimethyl-5-(trifluoromethyl)-[1,1′-biphenyl]-3-yl)-3-(2-(5-(2-(dimethylamino)ethyl)-2-oxo-4-(trifluoromethyl)pyridin-1(2H)-yl)-4-methylpentanamido)propanoic Acid]	< 5
Cc1cc(C2CC2)cc(C)c1-c1cc(C(F)(F)F)c(F)c([C@H](CC(=O)O)NC(=O)[C@H](CC(C)C)n2cc(CCCN(C)C)c(C(F)(F)F)cc2=O)c1F [HU-P2, (3S)-3-(4′-cyclopropyl-2,4-difluoro-2′,6′-dimethyl-5-(trifluoromethyl)-[1,1′-biphenyl]-3-yl)-3-(2-(5-(3-(dimethylamino)propyl)-2-oxo-4-(trifluoromethyl)pyridin-1(2H)-yl)-4-methylpentanamido)propanoic Acid]	5 to 10
Cc1cc(C)c(-c2cc(C3CC3)c(F)c([C@H](CC(=O)O)NC(=O)[C@H](CC(C)C)n3cc(CCN4CCC4)c(C(F)(F)F)cc3=O)c2F)c(C)c1 [HM-P2, (3S)-3-(2-(5-(2-(azetidin-1-yl)ethyl)-2-oxo-4-(trifluoromethyl)pyridin-1(2H)-yl)-4-methylpentanamido)-3-(5-cyclopropyl-2,4-difluoro-2′,4′,6′-trimethylbiphenyl-3-yl)propanoic Acid]	< 5
Cc1cc(-c2c(C)cc(F)cc2C)cc([C@H](CC(=O)O)NC(=O)[C@H](CC(C)C)n2cc(CCN(C)C)cc(C(F)F)c2=O)c1F [I-P2, (3S)-3-(4,4′-difluoro-2′,5,6′-trimethyl-[1,1′-biphenyl]-3-yl)-3-(2-(3-(difluoromethyl)-5-(2-(dimethylamino)ethyl)-2-oxopyridin-1(2H)-yl)-4-methylpentanamido)propanoic Acid]	< 5
Cc1ccc(F)c(C)c1-c1cc(C2CC2)c(F)c([C@H](CC(=O)O)NC(=O)[C@H](CC(C)C)n2cc(CCN3CCC3)c(C(F)(F)F)cc2=O)c1F [HH-P2, (3S)-3-(2-(5-(2-(azetidin-1-yl)ethyl)-2-oxo-4-(trifluoromethyl)pyridin-1(2H)-yl)-4-methylpentanamido)-3-(5-cyclopropyl-2,3′,4-trifluoro-2′,6′-dimethyl-[1,1′-biphenyl]-3-yl)propanoic Acid]	5 to 10
Cc1cc(F)cc(C)c1-c1cc(C(F)(F)F)c(F)c([C@H](CC(=O)O)NC(=O)[C@H](CC(C)C)n2cc(CCCN(C)C)c(C(F)(F)F)cc2=O)c1F [HW-P2, (3S)-3-(2-(5-(3-(dimethylamino)propyl)-2-oxo-4-(trifluoromethyl)pyridin-1(2H)-yl)-4-methylpentanamido)-3-(2,4,4′-trifluoro-2′,6′-dimethyl-5-(trifluoromethyl)-[1,1′-biphenyl]-3-yl)propanoic Acid]	< 5
Cc1cc(C)c(-c2cc(C(F)(F)F)c(F)c([C@H](CC(=O)O)NC(=O)[C@H](CC(C)C)n3cc(CCN4CCC4)c(C(F)(F)F)cc3=O)c2F)c(C)c1 [IG-P2, (3S)-3-(2-(5-(2-(azetidin-1-yl)ethyl)-2-oxo-4-(trifluoromethyl)pyridin-1(2H)-yl)-4-methylpentanamido)-3-(2,4-difluoro-2′,4′,6′-trimethyl-5-(trifluoromethyl)biphenyl-3-yl)propanoic Acid]	< 5
Cc1cc(C)c(-c2cc(C(F)(F)F)c(F)c([C@H](CC(=O)O)NC(=O)[C@H](CC(C)C)n3cc(CCCN(C)C)c(C(F)(F)F)cc3=O)c2F)c(C)c1 [HZ-P2, (3S)-3-(2,4-difluoro-2′,4′,6′-trimethyl-5-(trifluoromethyl)biphenyl-3-yl)-3-(2-(5-(3-(dimethylamino)propyl)-2-oxo-4-(trifluoromethyl)pyridin-1(2H)-yl)-4-methylpentanamido)propanoic Acid]	5 to 10
Cc1cc(C)c(-c2cc(C)c(F)c([C@H](CC(=O)O)NC(=O)[C@H](CC(C)C)n3cc(CCCN(C)C)c(C(F)(F)F)cc3=O)c2F)c(C)c1F [IW-P2, (3S)-3-(2-(5-(3-(dimethylamino)propyl)-2-oxo-4-(trifluoromethyl)pyridin-1(2H)-yl)-4-methylpentanamido)-3-(2,3′,4-trifluoro-2′,4′,5,6′-tetramethyl-[1,1′-biphenyl]-3-yl)propanoic Acid]	5 to 10
Cc1ccn([C@@H](NC(C)C)C(=O)N[C@@H](CC(=O)O)c2cncc(-c3c(C)cccc3C)c2)c(=O)c1 [Example C-7, reference compound]	10 to 50

— patent US11370773B1, “Inhibiting human integrin (alpha-4) (beta-7)” (Morphic Therapeutic, Inc., priority 2019, dated 2022)
